The assay concerns the target T1, human CB1 receptors (Homo sapiens, UniProt P21554).
T1 construct: expressed in transfected cells; host or cells: stably transfected cells (cell line for CB1 not explicitly stated)
Nature of the assay: Radioligand competition binding of [^3H]CP55940, human CB1. As to conditions: competition with [^3H]CP55940; cells recombinantly expressing the receptor. The protocol: Stably transfected cells or spleen tissue were homogenized in 15 mmol L-1 Hepes, 0.3 mmol L-1 EDTA, 1 mmol L-1 EGTA, 2 mmol L-1 MgCl2, complete EDTA-free protease inhibitor (Roche Applied Science, Rotkreuz, Switzerland), pH 7.4 using a glass potter and centrifugation at 47,800 g at 4° C. for 30 min. The pellet was then rehomogenized twice in the same buffer and centrifuged (47,800 g, 4° C., 30 min). The final pellet was then resuspended in 75 mmol L-1 Tris, 0.3 mmol L-1 EDTA, 1 mmol L-1 EGTA, 12.5 mmol L-1 MgCl2, 250 mmol L-1 sucrose, pH 7.4 at a protein concentration of 1 to 3 mg mL-1, aliquoted, frozen on dry ice and stored at −80° C.
For competition binding, membrane preparations were incubated either with 0.3 nM of [^3H]-CP55940 in the presence or absence of increasing concentrations of unlabeled (R^1═R^2═CH2CH3, R^3═CH2CH2CH2F) compound of formula (I) or with 1.5 nM compound of formula (I) ((R^1═R^2═CHTCH2T, R^3═CH2CH2CH2F)) and increasing amounts of membranes (2.5-80 μg) in the presence or absence of CP55940 (10 μM) for 60 min at 30° C. in a final volume of 0.2 mL of 50 mmol L-1 Tris-HCl, 5 mmol L-1 MgCl2, 2.5 mmol L-1 EGTA, 0.1% fatty acid-free BSA and 1% DMSO, pH 7.4, buffer, gently shaking. […] IC50 values and Hill slopes were determined by a four parameter logistic model using ActivityBase

T1 sequence (P21554 whole entry): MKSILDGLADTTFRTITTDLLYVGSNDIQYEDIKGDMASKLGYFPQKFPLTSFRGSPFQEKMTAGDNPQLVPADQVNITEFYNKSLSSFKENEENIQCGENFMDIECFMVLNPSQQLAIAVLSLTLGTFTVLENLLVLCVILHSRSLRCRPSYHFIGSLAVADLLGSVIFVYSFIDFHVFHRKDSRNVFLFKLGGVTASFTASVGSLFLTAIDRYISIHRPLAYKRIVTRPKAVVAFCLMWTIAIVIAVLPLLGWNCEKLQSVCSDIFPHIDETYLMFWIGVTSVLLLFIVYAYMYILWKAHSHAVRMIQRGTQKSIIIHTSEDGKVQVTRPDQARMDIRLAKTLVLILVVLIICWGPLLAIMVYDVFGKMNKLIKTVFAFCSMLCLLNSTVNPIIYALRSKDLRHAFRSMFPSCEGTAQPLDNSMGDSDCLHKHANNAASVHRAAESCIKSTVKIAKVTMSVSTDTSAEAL

Regarding `CCC(CC)(NC(=O)c1ccc(N2CC(OC)C2)c(OC[C@H]2C[C@@H]2CO)n1)C(=O)OCCCF` [unlabeled compound of formula (I)], the Ki is greater than 10 µM.
